Test results taken from US20230017786A1, “DEXTR[…] A DISEASE-MODIFYING TREATMENT FOR NEUROPSYCHIATRIC DISORDERS AND DISEASES” (priority 2020, published 2023).

Key:
[1] = target: T1, human NMDA receptor GluN1-GluN2A (Homo sapiens, UniProt Q05586+Q12879); test: FLIPR calcium assay, quinolinic acid, gentamicin, dextromethadone (Example 5 Part II), GluN1-GluN2A-CHO; format: cell-based; parameters: calcium response (mean±SEM): unit not given here; conditions: for calcium response (mean±SEM): GluN2A, n=42
T1 construct: expressed in transfected cells; host or cells: CHO
Description: (§1) Quinolinic acid or gentamicin CRCs were also produced, in presence of 10 μM glycine.
(§2) Test items were evaluated in FLIPR for their ability to modulate, alone or in combination, calcium entry in presence of […], using four CHO cell lines expressing diheteromeric human NMDA receptor (NMDAR): GluN-/GluN2A-CHO, GluN1-GluN2B-CHO, GluN1-GluN2C-CHO, GluN1-GluN2D-CHO.
(§3) The first aim of the study was to evaluate quinolinic acid or gentamicin CRC effect in the presence of 10 μM glycine.
(§4) FLIPR determination of intracellular calcium level was used as a read-out for NMDAR activation.
(§5) 400× compound plate was stored at −20° C. till FLIPR experimental day.
(§6) A 4× compound plate was generated from 400× compound plate by addition of up to 30 μl/well of compound buffer on FLIPR experimental day.
(§7) A FLIPR system was used to monitor intracellular calcium level in NMDAR cell lines, pre-loaded for 1 hour with Fluo-4, and then washed with assay buffer.
(§8) Y=Bottom+(Top−Bottom)/(1+10^((LogEC50−X)*HillSlope))
(§9) Test item CRC data were plotted by Prism 8 GraphPad software, in the different experimental conditions. And, column analysis, performed by Prism 8 GraphPad software, was one way ANOVA followed by Tukey's multiple comparisons test, with a single pooled variance.

[2] = target: T2, human NMDA receptor GluN1-GluN2B (Homo sapiens, UniProt Q05586+Q13224); test: FLIPR calcium assay, quinolinic acid, gentamicin, dextromethadone (Example 5 Part II), GluN1-GluN2B-CHO; format: cell-based; conditions: for calcium response (mean±SEM): GluN2B, n=42; for Response at max conc (%): quinolinic acid CRC, max 1,000 μM
T2 construct: expressed in transfected cells; host or cells: CHO
Description: as §1, §2, §3, §4, §5, §6, §7, §8, §9

[3] = target: T3, human NMDA receptor GluN1-GluN2D (Homo sapiens, UniProt O15399+Q05586); test: FLIPR calcium assay, quinolinic acid, gentamicin, dextromethadone (Example 5 Part II), GluN1-GluN2D-CHO; format: cell-based; conditions: for calcium response (mean±SEM): GluN2D, n=42
T3 construct: expressed in transfected cells; host or cells: CHO
Description: as §1, §2, §3, §4, §5, §6, §7, §8, §9

[4] = target: rat GluN1-GluN2B receptor (Rattus norvegicus, UniProt P35439+Q00960); conditions: Banke and Traynelis, 2003; read-out: potency; cited from earlier work
[5] = target: T4, human NMDA receptor GluN1-GluN2C (Homo sapiens, UniProt Q05586+Q14957); test: FLIPR calcium assay, quinolinic acid, gentamicin, dextromethadone (Example 5 Part II), GluN1-GluN2C-CHO; format: cell-based; conditions: for calcium response (mean±SEM): GluN2C, n=42
T4 construct: expressed in transfected cells; host or cells: CHO
Description: as §1, §2, §3, §4, §5, §6, §7, §8, §9

[6] = 0.04 μM L-Glu + 100 μM QA, 10 μM glycine
[7] = 0.04 μM L-Glu + 1000 μM QA, 10 μM glycine
[8] = 0.2 μM L-Glu + 100 μM QA, 10 μM glycine
[9] = 0.2 μM L-Glu + 1000 μM QA, 10 μM glycine
[10] = 100 μM QA, 10 μM glycine, 100% = 10 μM L-glutamate plus 10 μM glycine
[11] = 1000 μM QA, 10 μM glycine, 100% = 10 μM L-glutamate plus 10 μM glycine
[12] = 1000 μM QA, 10 μM glycine, 100% = 10 μM L-glutamate plus 10 μM glycine, listed as QA
[13] = CRC in presence of 10 μM glycine
[14] = quinolinic acid CRC, max 1,000 μM, 10 μM glycine

T4 sequence (Q14957 20-1233, other chains not shown): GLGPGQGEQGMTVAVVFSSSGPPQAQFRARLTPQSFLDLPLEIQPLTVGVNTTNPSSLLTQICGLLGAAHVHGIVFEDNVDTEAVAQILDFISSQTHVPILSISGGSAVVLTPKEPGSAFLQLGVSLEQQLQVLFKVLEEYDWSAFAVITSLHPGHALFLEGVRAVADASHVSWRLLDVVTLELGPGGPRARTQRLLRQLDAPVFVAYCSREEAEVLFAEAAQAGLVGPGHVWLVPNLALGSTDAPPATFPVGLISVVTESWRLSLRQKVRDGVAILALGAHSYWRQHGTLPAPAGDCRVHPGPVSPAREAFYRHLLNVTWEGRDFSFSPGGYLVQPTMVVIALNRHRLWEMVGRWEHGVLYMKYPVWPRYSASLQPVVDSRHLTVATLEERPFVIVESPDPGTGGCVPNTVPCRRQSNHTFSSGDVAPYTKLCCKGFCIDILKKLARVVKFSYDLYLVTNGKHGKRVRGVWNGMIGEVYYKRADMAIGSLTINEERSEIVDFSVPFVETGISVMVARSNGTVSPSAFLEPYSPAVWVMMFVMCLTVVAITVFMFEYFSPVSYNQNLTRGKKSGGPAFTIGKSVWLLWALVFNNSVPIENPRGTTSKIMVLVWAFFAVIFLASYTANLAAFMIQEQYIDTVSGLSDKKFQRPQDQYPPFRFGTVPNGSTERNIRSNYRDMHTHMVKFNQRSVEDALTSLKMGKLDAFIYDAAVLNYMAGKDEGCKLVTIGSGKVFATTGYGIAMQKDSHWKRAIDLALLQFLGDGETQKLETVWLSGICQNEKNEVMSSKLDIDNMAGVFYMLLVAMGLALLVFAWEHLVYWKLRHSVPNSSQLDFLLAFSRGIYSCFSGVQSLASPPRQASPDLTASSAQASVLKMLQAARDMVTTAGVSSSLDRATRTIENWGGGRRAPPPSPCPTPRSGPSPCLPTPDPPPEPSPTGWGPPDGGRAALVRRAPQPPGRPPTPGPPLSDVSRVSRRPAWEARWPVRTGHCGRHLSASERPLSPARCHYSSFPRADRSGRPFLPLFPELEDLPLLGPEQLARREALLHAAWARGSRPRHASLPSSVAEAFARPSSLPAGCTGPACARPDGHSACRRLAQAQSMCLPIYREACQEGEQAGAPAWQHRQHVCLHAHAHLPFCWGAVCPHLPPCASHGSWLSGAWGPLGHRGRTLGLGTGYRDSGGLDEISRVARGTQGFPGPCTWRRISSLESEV
T1 sequence (Q12879 23-1464, other chains not shown): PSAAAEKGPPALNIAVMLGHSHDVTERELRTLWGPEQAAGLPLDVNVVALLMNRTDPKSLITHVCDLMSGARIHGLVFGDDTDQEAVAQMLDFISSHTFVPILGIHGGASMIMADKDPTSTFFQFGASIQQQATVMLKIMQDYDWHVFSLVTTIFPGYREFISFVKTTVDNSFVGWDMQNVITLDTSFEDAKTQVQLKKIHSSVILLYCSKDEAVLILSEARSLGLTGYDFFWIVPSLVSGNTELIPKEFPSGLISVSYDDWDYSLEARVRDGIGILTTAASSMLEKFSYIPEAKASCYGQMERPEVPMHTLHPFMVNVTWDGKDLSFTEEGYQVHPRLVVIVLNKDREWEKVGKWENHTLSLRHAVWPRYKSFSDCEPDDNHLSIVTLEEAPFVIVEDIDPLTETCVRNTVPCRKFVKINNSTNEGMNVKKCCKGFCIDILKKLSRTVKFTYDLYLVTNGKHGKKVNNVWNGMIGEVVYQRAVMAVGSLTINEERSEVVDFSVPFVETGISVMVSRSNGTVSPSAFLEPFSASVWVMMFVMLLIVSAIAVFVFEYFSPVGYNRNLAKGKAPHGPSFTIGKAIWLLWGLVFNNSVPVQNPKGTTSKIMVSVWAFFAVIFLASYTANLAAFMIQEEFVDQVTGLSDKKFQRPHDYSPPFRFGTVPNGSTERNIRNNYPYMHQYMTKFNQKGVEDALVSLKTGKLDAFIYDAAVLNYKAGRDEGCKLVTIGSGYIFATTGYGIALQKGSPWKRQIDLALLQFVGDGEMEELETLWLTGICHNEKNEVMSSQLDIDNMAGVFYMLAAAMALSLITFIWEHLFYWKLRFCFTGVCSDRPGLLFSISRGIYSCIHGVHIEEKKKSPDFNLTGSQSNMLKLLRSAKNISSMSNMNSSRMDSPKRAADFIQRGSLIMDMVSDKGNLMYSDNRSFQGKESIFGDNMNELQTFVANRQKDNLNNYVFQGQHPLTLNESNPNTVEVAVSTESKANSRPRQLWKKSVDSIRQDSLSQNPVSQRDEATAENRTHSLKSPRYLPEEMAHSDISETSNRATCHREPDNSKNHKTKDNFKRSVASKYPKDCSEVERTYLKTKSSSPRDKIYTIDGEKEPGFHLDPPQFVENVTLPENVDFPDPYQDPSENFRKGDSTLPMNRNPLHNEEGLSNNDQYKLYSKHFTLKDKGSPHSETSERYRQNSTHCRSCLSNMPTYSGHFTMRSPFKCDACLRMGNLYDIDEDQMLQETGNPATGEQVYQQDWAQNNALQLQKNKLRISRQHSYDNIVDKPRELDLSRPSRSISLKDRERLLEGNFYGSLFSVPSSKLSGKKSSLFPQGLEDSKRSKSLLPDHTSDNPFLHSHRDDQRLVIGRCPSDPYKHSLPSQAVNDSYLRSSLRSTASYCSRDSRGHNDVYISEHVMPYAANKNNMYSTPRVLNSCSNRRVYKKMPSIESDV
T3 sequence (O15399 28-1336, other chains not shown): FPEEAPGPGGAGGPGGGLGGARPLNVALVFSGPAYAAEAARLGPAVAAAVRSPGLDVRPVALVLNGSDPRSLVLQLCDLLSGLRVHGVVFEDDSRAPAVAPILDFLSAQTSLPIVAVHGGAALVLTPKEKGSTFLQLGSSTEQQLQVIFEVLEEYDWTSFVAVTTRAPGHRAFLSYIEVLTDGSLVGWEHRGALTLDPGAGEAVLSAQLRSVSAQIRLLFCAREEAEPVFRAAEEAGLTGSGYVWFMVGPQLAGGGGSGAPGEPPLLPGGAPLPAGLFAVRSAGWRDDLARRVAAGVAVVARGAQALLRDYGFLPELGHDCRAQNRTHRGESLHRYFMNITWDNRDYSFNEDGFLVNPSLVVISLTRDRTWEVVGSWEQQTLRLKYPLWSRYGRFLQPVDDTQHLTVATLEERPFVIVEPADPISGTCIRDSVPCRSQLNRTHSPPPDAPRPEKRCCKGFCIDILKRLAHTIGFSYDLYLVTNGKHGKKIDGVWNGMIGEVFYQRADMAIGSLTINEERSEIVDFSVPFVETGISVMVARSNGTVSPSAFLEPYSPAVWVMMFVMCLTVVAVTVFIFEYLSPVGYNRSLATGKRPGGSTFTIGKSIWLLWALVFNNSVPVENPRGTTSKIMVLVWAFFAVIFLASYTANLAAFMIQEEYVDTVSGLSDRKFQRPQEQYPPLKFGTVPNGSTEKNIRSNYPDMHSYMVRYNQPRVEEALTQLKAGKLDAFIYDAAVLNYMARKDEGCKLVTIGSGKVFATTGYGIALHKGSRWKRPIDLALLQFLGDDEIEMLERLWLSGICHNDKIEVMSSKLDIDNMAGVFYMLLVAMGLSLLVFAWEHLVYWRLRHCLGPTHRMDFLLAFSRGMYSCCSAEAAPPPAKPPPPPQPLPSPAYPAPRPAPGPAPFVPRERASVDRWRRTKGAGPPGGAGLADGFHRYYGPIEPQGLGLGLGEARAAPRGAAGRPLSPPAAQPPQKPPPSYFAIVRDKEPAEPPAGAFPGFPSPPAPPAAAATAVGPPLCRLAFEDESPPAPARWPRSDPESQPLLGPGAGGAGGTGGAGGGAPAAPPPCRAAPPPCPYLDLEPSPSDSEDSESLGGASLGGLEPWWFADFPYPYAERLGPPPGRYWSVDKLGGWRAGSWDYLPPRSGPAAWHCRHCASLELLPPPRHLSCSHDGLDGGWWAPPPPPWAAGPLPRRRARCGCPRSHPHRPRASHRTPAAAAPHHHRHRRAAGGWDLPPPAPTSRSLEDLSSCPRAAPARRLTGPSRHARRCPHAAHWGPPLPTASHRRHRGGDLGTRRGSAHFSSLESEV

## O=C(O)c1cccnc1C(=O)O [Quinolinic acid]
[1]; [6]
  calcium response (mean±SEM): 7.5 ± 0.4
[1]; [7]
  calcium response (mean±SEM): 41 ± 1.0
[1]; [8]
  calcium response (mean±SEM): 26 ± 0.6
[1]; [9]
  calcium response (mean±SEM): 46 ± 0.9
[1]; 10 μM glycine, fit with maximal response constrained at 75%, read-out: EC50
  EC50: 850 µM
[1]; [10]
  % effect on calcium entry, 100 QA: 2.5 ± 0.3%
[1]; 1000 μM QA, 10 μM glycine
  calcium response (mean±SEM): 41 ± 1.2
[1]; [11]
  % effect on calcium entry, 1000 QA: 41±1.1%
[1]; [12]
  % effect on calcium entry, 1000 QA: 41 ± 1.2%
[1]; 1000 μM QA, 10 μM glycine, 100% = 10 μM L-glutamate plus 10 μM glycine, listed as quinolinic acid
  % effect on calcium entry, 1000 QA: 41±1.2%
[1]; [13]
  Minimal response (%): −1.9%
[1]; [14]
  Response at max conc (%): 40%
[2]; [6]
  calcium response (mean±SEM): 3.7 ± 1.3
[2]; [7]
  calcium response (mean±SEM): 27 ± 2.2
[2]; [8]
  calcium response (mean±SEM): 27 ± 0.8
[2]; [9]
  calcium response (mean±SEM): 27 ± 1.5
[2]; 10 μM glycine, read-out: EC50
  EC50: 170 µM
[2]; [10]
  % effect on calcium entry, 100 QA: 0.9 ± 0.7%
[2]; 333 μM quinolinic acid, 10 μM glycine
  calcium entry in CRC: 23±3.0%
[2]; 1000 μM QA, 10 μM glycine
  calcium response (mean±SEM): 37 ± 1.3
[2]; [11]
  % effect on calcium entry, 1000 QA: 37±1.3%
[2]; [12]
  % effect on calcium entry, 1000 QA: 37 ± 1.3%
[2]; [13]
  Minimal response (%): −2.1%
[2]; 10 μM glycine
  Response at max conc (%): 25%
[2]; 10 μM glycine, listed as quinolinic acid
  Response at max conc (%): 25±2.1%
[3]; [6]
  calcium response (mean±SEM): 26 ± 1.2
[3]; [7]
  calcium response (mean±SEM): 53 ± 2.3
[3]; [8]
  calcium response (mean±SEM): 93 ± 1.0
[3]; [9]
  calcium response (mean±SEM): 58 ± 1.6
[3]; 10 μM glycine, read-out: EC50
  EC50: 520 µM
[3]; [10]
  % effect on calcium entry, 100 QA: −0.1 ± 0.4%
[3]; 1000 μM QA, 10 μM glycine
  calcium response (mean±SEM): 55 ± 1.1
[3]; [11]
  % effect on calcium entry, 1000 QA: 55±1.1%
[3]; [12]
  % effect on calcium entry, 1000 QA: 55 ± 1.1%
[3]; [13]
  Minimal response (%): −1.3%
[3]; [14]
  Response at max conc (%): 50%
[4]
  EC50: 518 ± 35 µM
[5]; [6]
  calcium response (mean±SEM): −2.0 ± 1.1
[5]; [7]
  calcium response (mean±SEM): −4.1 ± 0.9^
[5]; [8]
  calcium response (mean±SEM): 27 ± 1.1
[5]; [9]
  calcium response (mean±SEM): 6.6 ± 0.8
[5]; 10 μM glycine, read-out: EC50
  EC50: > 1000 µM
[5]; [10]
  % effect on calcium entry, 100 QA: −2.8 ± 0.6%
[5]; 1000 μM QA, 10 μM glycine
  calcium response (mean±SEM): −5.5 ± 0.4^
[5]; [11]
  % effect on calcium entry, 1000 QA: −5.5 ± 0.4^ %
[5]; [13]
  Minimal response (%): −4.0%
[5]; plus 1000 μM quinolinic acid, 10 μM glycine
  intracellular calcium increase elicited by 0.2 μM L-glutamate: 6.6±0.8%
[5]; [14]
  Response at max conc (%): −4.0%
